Test results: US8076327B2, “Condensed imidazole derivatives as aldosterone synthase inhibitors” (Novartis AG, priority 2006, dated 2011)

Experiments:
[1] = molecular target: T1, recombinant human Cyp19 enzyme (Homo sapiens, UniProt P11511); test: Cyp19/MFC high throughput enzyme inhibition kit (aromatase); type: biochemical
T1 construct: purchased Becton Dickinson Biosciences, San Jose, Calif., USA
T1 sequence (P11511 1-503): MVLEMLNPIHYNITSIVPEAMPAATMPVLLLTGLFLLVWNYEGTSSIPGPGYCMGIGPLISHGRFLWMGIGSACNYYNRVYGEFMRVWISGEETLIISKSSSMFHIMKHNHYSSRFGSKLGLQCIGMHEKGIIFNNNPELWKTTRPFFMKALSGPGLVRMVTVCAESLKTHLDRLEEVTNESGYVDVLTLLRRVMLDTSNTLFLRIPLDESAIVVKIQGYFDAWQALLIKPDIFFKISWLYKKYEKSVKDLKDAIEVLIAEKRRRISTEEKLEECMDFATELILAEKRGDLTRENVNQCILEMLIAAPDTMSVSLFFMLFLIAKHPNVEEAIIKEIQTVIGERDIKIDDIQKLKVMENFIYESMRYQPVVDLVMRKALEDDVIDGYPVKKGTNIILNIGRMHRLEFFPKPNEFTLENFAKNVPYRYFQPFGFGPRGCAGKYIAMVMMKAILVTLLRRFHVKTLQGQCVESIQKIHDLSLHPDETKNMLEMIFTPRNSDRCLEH
Protocol: The compounds of the formula (Ia) have at least one asymmetric carbon atom, which is labelled “*”. A compound of the formula (Ia) is to be understood as a compound having a specific configuration around the designated asymmetric carbon atom. If a synthesis method is used which leads to racemic compounds, the racemate resolution is carried out in accordance with conventional methods, such as via a chiral HPLC column. […] The aforementioned aromatase inhibitory activity can, as the skilled worker is well aware and as described below, be comfortably determined using the commercial Cyp19 enzyme inhibition kit, preferably the Cyp19/methoxy-4-trifluoromethyl-coumarin (MFC) high throughput inhibition kit (Becton Dickinson Biosciences, San Jose, Calif., USA) as described hereafter. In the abovementioned inhibition kit, compounds of the formula (Ia) have an activity which is at least 10 times lower preferably 20 times lower, but more preferably 40 times lower than the compounds of the formula (Ia) with the opposite configuration around the asymmetric carbon atom labelled “*”. A lower inhibiting activity corresponds to a higher IC50 value.
The Cyp19/methoxy-4-trifluoromethyl-coumarin (MFC) high throughput inhibition kit (Becton Dickinson Biosciences, San Jose, Calif., USA), for example, is designed to screen for potential inhibitors of Cyp19 catalytic activity in a 96-well format. […]

[2] = test system: plasma aldosterone levels; test: Suppression of plasma aldosterone in ACTH-stimulated rats; type: in vivo, Wistar rats; details: 4 mg/kg p.o.; plasma level 2 h after dosing relative to 1 h prior to dosing; rat
Protocol: (§1) The aldosterone- and corticosterone-suppressing activity of herein described compounds may be assessed with the following in vivo protocol.
(§2) Adult male Wistar rats weighing between 250 and 350 grams are kept under the usual 12-hour light and 12-hour dark conditions at a temperature of 23° C.±2° C. On the first day of the experiment, the animals receive a subcutaneous injection of a depot ACTH product in a dose of 1.0 mg/kg weight (SYNACTHEN-Depot, Novartis, Basel, CH) 16 hours prior to the administration of a test compound. […] An alternative method to stimulate aldosterone secretion consists in subjecting rats to a low salt diet for 48 hours and applying the diuretic furosemide at 10 mg/kg by subcutaneous or intraperitoneal administration 16 hours, respectively 2 hours prior to the start of the experiment. On the second day of the experiment, the animals are divided into test groups of 5 animals and subjected to a first bleed 1 hour prior to the administration of test compound. Subsequently, and 16 hours after the injection of the ACTH product, the animals receive either vehicle or test compound dissolved in vehicle in a variable dose range from 0.02 to 20 mg/kg by oral gavage. The animals are bled two more times from the vena subclavia under isoflurane anaesthesia 2 and 6 hours after dosing. The blood is collected in heparin-treated tubes. The plasma samples are obtained by centrifugation and stored at −20° C. An alternative method to bleed animals time-dependently consists in using animals that are chronically carotid catheterized which allows the periodical sampling of up to 0.2 ml of blood using an AccuSampler (DiLab Europe, Lund, Sweden). The blood sampling with the AccuSampler may occur 1 hour prior to the administration of a test compound and 2, 4, 6, 8, 12, 16 and 24 hours thereafter. The blood samples are anticoagulated with heparin and centrifuged. The aldosterone and corticosterone concentrations of the plasma samples can be determined with a radioimmunoassay as described above for the in vitro test systems.
(§3) The selective suppression of plasma steroid levels as for instance aldosterone in comparison to corticosterone may serve as a measure for in vivo bioavailability and pharmacodynamic enzyme inhibitory activity of the herein described compounds. The evaluation of the data may occur relative to the application of vehicle or quantitatively by determination of the area under the curve (AUC).

[3] = test system: plasma corticosterone levels; test: Suppression of plasma corticosterone in ACTH-stimulated rats; type: in vivo, Wistar rats; details: 4 mg/kg p.o.; plasma level 2 h after dosing relative to 1 h prior to dosing; rat
Protocol: as §1, §2, §3

Structure (SMILES) | IC50 [1] [nM] | Aldosterone levels (% change at 2 h) [2] [%] | Corticosterone levels (% change at 2 h) [3] [%]
N#Cc1ccc(C2OCCn3cncc32)cc1 (racemic) [antipode of 24, 4-(5,6-Dihydro-8H-imidazo[5,1-c][1,4]oxazin-8-yl)benzonitrile] | 7.1 | – | –
N#Cc1ccc(C2SCCn3cncc32)cc1 (stereo not drawn) [Example 2, 4-(5,6-Dihydro-8H-imidazo[5,1-c][1,4]thiazin-8-yl)benzonitrile] | – | −56 | −22
CC1(c2ccc(C#N)cc2)SCCn2cncc21 (stereo not drawn) [Example 4, 4-(8-Methyl-5,6-dihydro-8H-imidazo[5,1-c][1,4]thiazin-8-yl)-benzonitrile] | – | −19 | −10
CC(=O)c1ccc(C2OCCn3cncc32)cc1 (stereo not drawn) [Example 18, 1-[4-(5,6-Dihydro-8H-imidazo[5,1-c][1,4]oxazin-8-yl)phenyl]ethanone] | – | −33 | 4
N#Cc1cccc(C2OCCn3cncc32)c1 (stereo not drawn) [Example 19, 3-(5,6-Dihydro-8H-imidazo[5,1-c][1,4]oxazin-8-yl)benzonitrile] | – | −65 | 1.7
